Results reported in the NIST ThermoML archive (doi:10.1021/acs.jced.6b00718).

Assay: xn = mol fraction of the nth substance listed
Details: Liquid; for electrical conductivity: Alternating current cell with electrodes; for viscosity: Falling or rolling sphere viscometry; for mass density: Vibrating tube method

N#CCCCC#N [pentanedinitrile] + CCCC[N+]1(C)CCCC1.O=S(=O)([N-]S(=O)(=O)C(F)(F)F)C(F)(F)F
Details	electrical conductivity, 100 kPa [S/m]	mass density, 101 kPa [kg/m3]	viscosity, 101 kPa [mPa·s]
292.9 K, x2 = 0.2589	0.572	–	–
293.15 K, x2 = 0	–	987	6.97
293.15 K, x2 = 0.1003	–	1094.2	9.92
293.15 K, x2 = 0.1997	–	1167.5	13.34
293.15 K, x2 = 0.2999	–	1222.5	17.57
293.15 K, x2 = 0.4002	–	1266.7	22.88
293.15 K, x2 = 0.5006	–	1300.5	28.92
293.15 K, x2 = 0.6003	–	1327.5	38.47
293.15 K, x2 = 0.6998	–	1349.1	48.33
293.15 K, x2 = 0.8004	–	1368.5	61.37
293.15 K, x2 = 0.9002	–	1385.4	78.19
297.4 K, x2 = 0.2589	0.651	–	–
298.15 K, x2 = 0	–	983.1	6.12
298.15 K, x2 = 0.1003	–	1090.3	8.55
298.15 K, x2 = 0.1997	–	1163.3	11.42
298.15 K, x2 = 0.2999	–	1218.1	14.81
298.15 K, x2 = 0.4002	–	1262.2	19.17
298.15 K, x2 = 0.5006	–	1296.1	23.95
298.15 K, x2 = 0.6003	–	1323.1	31.5
298.15 K, x2 = 0.6998	–	1344.8	39.56
298.15 K, x2 = 0.8004	–	1364.3	49.4
298.15 K, x2 = 0.9002	–	1380.9	62.15
303.15 K, x2 = 0	–	979.1	5.39
303.15 K, x2 = 0.1003	–	1086.2	7.42
303.15 K, x2 = 0.1997	–	1159	9.83
303.15 K, x2 = 0.2999	–	1213.8	12.69
303.15 K, x2 = 0.4002	–	1257.9	16.22
303.15 K, x2 = 0.5006	–	1291.7	20.1
303.15 K, x2 = 0.6003	–	1318.6	26.13
303.15 K, x2 = 0.6998	–	1340.3	32.56
303.15 K, x2 = 0.8004	–	1359.8	40.38
303.15 K, x2 = 0.9002	–	1376.4	50.27
304.3 K, x2 = 0.2589	0.782	–	–
313.15 K, x2 = 0	–	971.2	4.25
313.15 K, x2 = 0.1003	–	1077.9	5.78
313.15 K, x2 = 0.1997	–	1150.5	7.46
313.15 K, x2 = 0.2999	–	1205.1	9.52
313.15 K, x2 = 0.4002	–	1249	11.97
313.15 K, x2 = 0.5006	–	1282.8	14.66
313.15 K, x2 = 0.6003	–	1309.7	18.67
313.15 K, x2 = 0.6998	–	1331.3	22.97
313.15 K, x2 = 0.8004	–	1350.8	28.01
313.15 K, x2 = 0.9002	–	1367.2	34.37
314.5 K, x2 = 0.2589	1	–	–
323.15 K, x2 = 0	–	963.4	3.47
323.15 K, x2 = 0.1003	–	1069.7	4.6
323.15 K, x2 = 0.1997	–	1142	5.84
323.15 K, x2 = 0.2999	–	1196.5	7.39
323.15 K, x2 = 0.4002	–	1240.3	9.16
323.15 K, x2 = 0.5006	–	1274	11.11
323.15 K, x2 = 0.6003	–	1300.9	13.88
323.15 K, x2 = 0.6998	–	1322.5	16.93
323.15 K, x2 = 0.8004	–	1342	18.72
323.15 K, x2 = 0.9002	–	1358.2	24.65
323.2 K, x2 = 0.2589	1.21	–	–
333.15 K, x2 = 0	–	955.6	2.88
333.15 K, x2 = 0.1003	–	1061.5	3.72
333.15 K, x2 = 0.1997	–	1133.7	4.71
333.15 K, x2 = 0.2999	–	1188	5.85
333.15 K, x2 = 0.4002	–	1231.7	7.27
333.15 K, x2 = 0.5006	–	1265.2	8.67
333.15 K, x2 = 0.6003	–	1291.9	10.69
333.15 K, x2 = 0.6998	–	1313.8	13.01
333.15 K, x2 = 0.8004	–	1333	14.2
333.15 K, x2 = 0.9002	–	–	18.39
336 K, x2 = 0.2589	1.55	–	–

N#CCCCCC#N [hexanedinitrile] + CCCC[N+]1(C)CCCC1.O=S(=O)([N-]S(=O)(=O)C(F)(F)F)C(F)(F)F
101 kPa
Details	electrical conductivity [S/m]	mass density [kg/m3]	viscosity [mPa·s]
291.8 K, x2 = 0.2889	0.495	–	–
293.15 K, x2 = 0	–	962.3	7.17
293.15 K, x2 = 0.1002	–	1063.5	9.85
293.15 K, x2 = 0.1996	–	1138	13.22
293.15 K, x2 = 0.3004	–	1196.8	17.56
293.15 K, x2 = 0.3995	–	1243	25.01
293.15 K, x2 = 0.5001	–	1281.6	31
293.15 K, x2 = 0.6	–	1313.1	37.48
293.15 K, x2 = 0.7011	–	1340	48.32
293.15 K, x2 = 0.7996	–	1362.5	59.96
293.15 K, x2 = 0.8997	–	1382.3	77.23
295.2 K, x2 = 0.2889	0.551	–	–
298.15 K, x2 = 0	–	958.6	6.31
298.15 K, x2 = 0.1002	–	1059.5	8.45
298.15 K, x2 = 0.1996	–	1133.9	11.27
298.15 K, x2 = 0.3004	–	1192.5	14.79
298.15 K, x2 = 0.3995	–	1238.7	21.46
298.15 K, x2 = 0.5001	–	1277.3	25.62
298.15 K, x2 = 0.6	–	1308.6	30.92
298.15 K, x2 = 0.7011	–	1335.6	39.22
298.15 K, x2 = 0.7996	–	1358.2	48.21
298.15 K, x2 = 0.8997	–	1378	61.49
299.3 K, x2 = 0.2889	0.62	–	–
303.15 K, x2 = 0	–	954.8	5.53
303.15 K, x2 = 0.1002	–	1055.6	7.35
303.15 K, x2 = 0.1996	–	1129.8	9.71
303.15 K, x2 = 0.3004	–	1188.3	12.61
303.15 K, x2 = 0.3995	–	1234.4	18.54
303.15 K, x2 = 0.5001	–	1272.9	21.53
303.15 K, x2 = 0.6	–	1304.2	25.59
303.15 K, x2 = 0.7011	–	1331.2	32.33
303.15 K, x2 = 0.7996	–	1353.8	39.41
303.15 K, x2 = 0.8997	–	1373.5	49.74
303.9 K, x2 = 0.2889	0.702	–	–
313.15 K, x2 = 0	–	947.2	4.54
313.15 K, x2 = 0.1002	–	1047.6	5.72
313.15 K, x2 = 0.1996	–	1121.5	7.43
313.15 K, x2 = 0.3004	–	1179.9	9.44
313.15 K, x2 = 0.3995	–	1225.8	14.05
313.15 K, x2 = 0.5001	–	1264.2	15.63
313.15 K, x2 = 0.6	–	1295.3	18.34
313.15 K, x2 = 0.7011	–	1322.3	22.83
313.15 K, x2 = 0.7996	–	1344.8	27.42
313.15 K, x2 = 0.8997	–	1364.5	34.01
313.4 K, x2 = 0.2889	0.9	–	–
322.2 K, x2 = 0.2889	1.1	–	–
323.15 K, x2 = 0	–	939.8	3.73
323.15 K, x2 = 0.1002	–	1039.8	4.53
323.15 K, x2 = 0.1996	–	1113.4	5.86
323.15 K, x2 = 0.3004	–	1171.6	7.32
323.15 K, x2 = 0.3995	–	1217.3	10.01
323.15 K, x2 = 0.5001	–	1255.6	11.82
323.15 K, x2 = 0.6	–	1286.7	13.7
323.15 K, x2 = 0.7011	–	1313.6	16.83
323.15 K, x2 = 0.7996	–	1336	19.97
323.15 K, x2 = 0.8997	–	1355.6	24.42
332.9 K, x2 = 0.2889	1.37	–	–
333.15 K, x2 = 0	–	932.3	3.02
333.15 K, x2 = 0.1002	–	1031.9	3.74
333.15 K, x2 = 0.1996	–	1105.4	4.8
333.15 K, x2 = 0.3004	–	1163.3	5.87
333.15 K, x2 = 0.3995	–	1206.3	7.86
333.15 K, x2 = 0.5001	–	1246.8	9.21
333.15 K, x2 = 0.6	–	1277.9	10.59
333.15 K, x2 = 0.7011	–	1304.7	12.85
333.15 K, x2 = 0.7996	–	1326.7	15.09
333.15 K, x2 = 0.8997	–	1346.3	18.22
